Which solubility (mole fraction) (in acetonitrile, 278.15 K) does the source give for `O=[N+]([O-])c1cn[nH]c1` here?
Its solubility (mole fraction) is 0.0478.

What about the solubility (mole fraction) (in acetonitrile, 280.65 K) of the same compound?
The solubility (mole fraction) was 0.0491.

And the solubility (mole fraction) (in acetonitrile, 283.15 K)?
The solubility (mole fraction) was 0.0508.

What about the solubility (mole fraction) (in acetonitrile, 285.65 K) of the same compound?
The solubility (mole fraction) was 0.0524.

And the solubility (mole fraction) (in acetonitrile, 288.15 K)?
The solubility (mole fraction) was 0.0541.

What about the solubility (mole fraction) (in acetonitrile, 290.65 K) of the same compound?
The solubility (mole fraction) was 0.0558.

And the solubility (mole fraction) (in acetonitrile, 293.15 K)?
Its solubility (mole fraction) is 0.0576.

And the solubility (mole fraction) (in acetonitrile, 295.65 K)?
The solubility (mole fraction) was 0.0595.

And the solubility (mole fraction) (in acetonitrile, 298.15 K)?
Its solubility (mole fraction) is 0.0623.

And the solubility (mole fraction) (in acetonitrile, 300.65 K)?
The solubility (mole fraction) was 0.0648.

And the solubility (mole fraction) (in acetonitrile, 303.15 K)?
Its solubility (mole fraction) is 0.0674.

And the solubility (mole fraction) (in acetonitrile, 305.65 K)?
The solubility (mole fraction) was 0.0703.

And the solubility (mole fraction) (in acetonitrile, 308.15 K)?
The solubility (mole fraction) was 0.0731.

And the solubility (mole fraction) (in acetonitrile, 310.65 K)?
The solubility (mole fraction) was 0.0758.

What about the solubility (mole fraction) (in acetonitrile, 313.15 K) of the same compound?
The solubility (mole fraction) was 0.079.

And the solubility (mole fraction) (in acetonitrile, 315.65 K)?
The solubility (mole fraction) was 0.0828.

What about the solubility (mole fraction) (in acetonitrile, 318.15 K) of the same compound?
Its solubility (mole fraction) is 0.0872.

What about the solubility (mole fraction) (in ethanol, 278.15 K) of the same compound?
The solubility (mole fraction) was 0.037.

What about the solubility (mole fraction) (in ethanol, 280.65 K) of the same compound?
Its solubility (mole fraction) is 0.0389.

What about the solubility (mole fraction) (in ethanol, 283.15 K) of the same compound?
Its solubility (mole fraction) is 0.0405.

What about the solubility (mole fraction) (in ethanol, 285.65 K) of the same compound?
Its solubility (mole fraction) is 0.0429.

And the solubility (mole fraction) (in ethanol, 288.15 K)?
The solubility (mole fraction) was 0.045.

And the solubility (mole fraction) (in ethanol, 290.65 K)?
The solubility (mole fraction) was 0.047.

What about the solubility (mole fraction) (in ethanol, 293.15 K) of the same compound?
Its solubility (mole fraction) is 0.0494.

What about the solubility (mole fraction) (in ethanol, 295.65 K) of the same compound?
The solubility (mole fraction) was 0.0521.

What about the solubility (mole fraction) (in ethanol, 298.15 K) of the same compound?
The solubility (mole fraction) was 0.0549.

What about the solubility (mole fraction) (in ethanol, 300.65 K) of the same compound?
The solubility (mole fraction) was 0.0582.

And the solubility (mole fraction) (in ethanol, 303.15 K)?
Its solubility (mole fraction) is 0.0614.

And the solubility (mole fraction) (in ethanol, 305.65 K)?
The solubility (mole fraction) was 0.0647.

And the solubility (mole fraction) (in ethanol, 308.15 K)?
Its solubility (mole fraction) is 0.0677.

What about the solubility (mole fraction) (in ethanol, 310.65 K) of the same compound?
Its solubility (mole fraction) is 0.0714.

And the solubility (mole fraction) (in ethanol, 313.15 K)?
Its solubility (mole fraction) is 0.0747.

And the solubility (mole fraction) (in ethanol, 315.65 K)?
The solubility (mole fraction) was 0.0784.

And the solubility (mole fraction) (in ethanol, 318.15 K)?
The solubility (mole fraction) was 0.0828.

What about the solubility (mole fraction) (in methanol, 278.15 K) of the same compound?
The solubility (mole fraction) was 0.0491.

What about the solubility (mole fraction) (in methanol, 280.65 K) of the same compound?
The solubility (mole fraction) was 0.0502.

What about the solubility (mole fraction) (in methanol, 283.15 K) of the same compound?
Its solubility (mole fraction) is 0.0517.

And the solubility (mole fraction) (in methanol, 285.65 K)?
Its solubility (mole fraction) is 0.0532.

And the solubility (mole fraction) (in methanol, 288.15 K)?
Its solubility (mole fraction) is 0.0558.

What about the solubility (mole fraction) (in methanol, 290.65 K) of the same compound?
Its solubility (mole fraction) is 0.0583.

And the solubility (mole fraction) (in methanol, 293.15 K)?
The solubility (mole fraction) was 0.061.

What about the solubility (mole fraction) (in methanol, 295.65 K) of the same compound?
The solubility (mole fraction) was 0.0638.

What about the solubility (mole fraction) (in methanol, 298.15 K) of the same compound?
Its solubility (mole fraction) is 0.067.

What about the solubility (mole fraction) (in methanol, 300.65 K) of the same compound?
The solubility (mole fraction) was 0.0698.

What about the solubility (mole fraction) (in methanol, 303.15 K) of the same compound?
The solubility (mole fraction) was 0.073.

What about the solubility (mole fraction) (in methanol, 305.65 K) of the same compound?
The solubility (mole fraction) was 0.0758.

What about the solubility (mole fraction) (in methanol, 308.15 K) of the same compound?
The solubility (mole fraction) was 0.0789.

What about the solubility (mole fraction) (in methanol, 310.65 K) of the same compound?
Its solubility (mole fraction) is 0.0817.

What about the solubility (mole fraction) (in methanol, 313.15 K) of the same compound?
The solubility (mole fraction) was 0.0848.

What about the solubility (mole fraction) (in methanol, 315.65 K) of the same compound?
Its solubility (mole fraction) is 0.0885.

What about the solubility (mole fraction) (in methanol, 318.15 K) of the same compound?
Its solubility (mole fraction) is 0.092.

And the solubility (mole fraction) (in water, 278.15 K)?
Its solubility (mole fraction) is 0.00209.

And the solubility (mole fraction) (in water, 280.65 K)?
Its solubility (mole fraction) is 0.00218.

What about the solubility (mole fraction) (in water, 283.15 K) of the same compound?
Its solubility (mole fraction) is 0.00231.

What about the solubility (mole fraction) (in water, 285.65 K) of the same compound?
Its solubility (mole fraction) is 0.00248.

And the solubility (mole fraction) (in water, 288.15 K)?
Its solubility (mole fraction) is 0.00268.

And the solubility (mole fraction) (in water, 290.65 K)?
The solubility (mole fraction) was 0.00286.

What about the solubility (mole fraction) (in water, 293.15 K) of the same compound?
Its solubility (mole fraction) is 0.00315.

What about the solubility (mole fraction) (in water, 295.65 K) of the same compound?
The solubility (mole fraction) was 0.00339.

And the solubility (mole fraction) (in water, 298.15 K)?
The solubility (mole fraction) was 0.0037.

What about the solubility (mole fraction) (in water, 300.65 K) of the same compound?
Its solubility (mole fraction) is 0.00401.

And the solubility (mole fraction) (in water, 303.15 K)?
Its solubility (mole fraction) is 0.0044.

What about the solubility (mole fraction) (in water, 305.65 K) of the same compound?
The solubility (mole fraction) was 0.00477.

And the solubility (mole fraction) (in water, 308.15 K)?
The solubility (mole fraction) was 0.00526.

What about the solubility (mole fraction) (in water, 310.65 K) of the same compound?
Its solubility (mole fraction) is 0.00586.

And the solubility (mole fraction) (in water, 313.15 K)?
Its solubility (mole fraction) is 0.00653.

And the solubility (mole fraction) (in water, 315.65 K)?
Its solubility (mole fraction) is 0.00724.

And the solubility (mole fraction) (in water, 318.15 K)?
The solubility (mole fraction) was 0.00802.

Source: BigSolDB 2.1
